Assay results as given in patent US12560591B2, “Methods of treatment with CD8 T cell-mediated immune therapy” (Providence Health & Services—Oregon, priority 2019, dated 2026).

How the values were obtained:
CXCR3^+CD8^+ T cells = test: FACS analysis of CXCR3^+CD8^+ T cells in CT26 tumor bearing mice; type: in vivo, mouse; details: preclinical modeling, 7 days treatment, FIG. 10E
Description: FIGS. 10A-10E show CD8^+ T cell proliferation is suppressed by the tumor microenvironment, but TGF13 inhibition can increase tumor trafficking. […] Ki67^+CD8^+ T cells was determined by FACS analysis of lymph nodes and MC38 tumors of WT and ALK5^ΔCD8 mice (FIG. 10B).
Flow Cytometry: For ex vivo cytokine analysis, cells were first treated with a 1× cell activation cocktail of PMA/ionomycin/Brefeldin A (Biolegend) for 5 hours in complete RPMI media. One million cells from single cell suspensions were stained with anti-CD16/CD32 Fc block (1:200, BD Biosciences) and fixable viability 700 dye (1:10,000, BD Biosciences) in 1×PBS for 15 min. at 37° C. prior to surface and intracellular staining with primary antibodies. Surface staining commenced in 200 μl FACS buffer supplemented with a 1:4 dilution of Brilliant Violet stain buffer (BD Biosciences) and fluorescently conjugated antibodies (Table 1) for 30 min at 4° C. in the dark; all are mouse reactive antibodies unless otherwise indicated. Following surface staining cells were washed and fixed in either 2% PFA or Fix/Perm buffer (eBioscience) for 20 min at 4° C. for intracellular stain. Fix/perm buffer was washed with 1× perm wash buffer (eBioscience) and intracellular proteins were stained with fluorescently conjugated ICS antibodies in perm wash buffer for 30 min. at 4° C. in the dark. […]

[1] = system: peripheral blood CXCR3^+CD45^+CD3^+CD4^− T cells; test: Clinical trial NCT02688712: peripheral blood CXCR3 flow cytometry, baseline vs day 15; type: in vivo, human; details: rectal cancer patients, after two weeks of LY2157299, majority of patients, FIG. 12C
Source text: FIGS. 12A-12E are a series of panels showing TGFβ-mediated suppression of CXCR3-dependent CD8^+ T cell chemotaxis is relieved by LY2157299 in human patients with rectal cancer. […] FIG. 12B illustrates the clinical trial schema for a phase II clinical trial of rectal cancer patients and sample collection intervals. Patients receive two cycles of LY2157299 on days 1-14 and again on days 30-43 while receiving standard of care chemoradiation on days 15-57 prior to surgery. […] Patients are grouped by nodal status following neoadjuvant treatment (ypN). On the right, percent change in frequency of CXCR3^+CD3^+CD4^− T cells between days 1 and 15 is shown versus the neoadjuvant rectal (NAR) score. […] Each patient is shown (thin gray lines) along with the mean of all patients (thick black line). […] Error bars in each subpanel are standard deviations.
Clinical trial analysis: Patients enrolled in clinical trial NCT02688712 provided consent prior to tissue collection as designed and approved in PHS IRB #15-050. […] Pathological assessment for neoadjuvant treatment response was evaluated in the surgical resection specimen including excised lymph nodes. Neoadjuvant rectal (NAR) score was calculated by the published, validated formula (George et al, Curr. Colorectal Cancer Rep. 11: 275-280): [5*ypN−3(cT−ypT)+12]^2/9.61. […]

[2] = system: CXCR3^+CD8^+ T cells in the tumor microenvironment; test: Clinical trial NCT02688712: immunofluorescence of rectal tumor biopsies, baseline vs day 15; type: in vivo, human; details: rectal cancer patient biopsies, baseline vs day 15, FIG. 12D-E
Source text: FIGS. 12A-12E are a series of panels showing TGFβ-mediated suppression of CXCR3-dependent CD8^+ T cell chemotaxis is relieved by LY2157299 in human patients with rectal cancer. […] FIG. 12B illustrates the clinical trial schema for a phase II clinical trial of rectal cancer patients and sample collection intervals. Patients receive two cycles of LY2157299 on days 1-14 and again on days 30-43 while receiving standard of care chemoradiation on days 15-57 prior to surgery. […] Patients are grouped by nodal status following neoadjuvant treatment (ypN). On the right, percent change in frequency of CXCR3^+CD3^+CD4^− T cells between days 1 and 15 is shown versus the neoadjuvant rectal (NAR) score. […] Each patient is shown (thin gray lines) along with the mean of all patients (thick black line). […]
To determine the clinical relevance of our data, the expression of CXCR3 in human patients was interrogated. […] Therefore, the CD4^+ T cell panel was used and back gated on CD45^+CD3^+CD4^− T cells, the majority of which are CD8^+ T cells (on average 65% of CD45^+CD3^+CD4^− cells were CD8^+ T cells using the T effector and memory panel which has CD45, CD3, CD4, and CD8, but not CXCR3), and calculated CXCR3 expression. […] Therefore, forceps-biopsy specimens obtained by proctoscopy at baseline and day 15 were evaluated for alterations in CXCR3^+CD8^+ T cells.

Cc1cccc(-c2nn3c(c2-c2ccnc4ccc(C(N)=O)cc24)CCC3)n1 [LY2157299]
CXCR3^+CD8^+ T cells following treatment (CXCR3^+CD8^+ T cells): increase in CXCR3^+CD8^+ T cells | peripheral blood CXCR3 expression, change day 0 to day 15 [1]: decrease in peripheral blood CXCR3 expression | percentage CXCR3^+CD8^+ T cells in the tumor microenvironment [2]: increase in the percentage CXCR3^+CD8^+ T cells
